pIC50: −log10 of the molar value. Calls of active or inactive are those of the source. No cut-off for these calls is given here.
How the values were obtained:
LNCaP [1] = test: In vivo antitumor activity against human LNCap cells xenografted in NCG mouse assessed as tumor growth inhibition at 50 mg/kg administered once daily for 18 to 21 days relative to control; type: functional; conditions: time 18-21 day, read-out: TGI
[2] = Half life in crab-eating monkey at 6 mg/kg, ig by UPLC-MS/MS analysis; type: ADME, organism-based, Macaca fascicularis; conditions: cynomolgus monkey, in vivo, po
Cytochrome P450 2C9 = Cytochrome P450 2C9 (Homo sapiens, UniProt P11712); test: Inhibition of CYP2C9 in human liver microsomes at 0.01 to 30 uM using diclofenac as substrate in presence of NADPH by UPLC-MS/MS analysis; type: ADME, Microsome
[3] = Cmax in NCG mouse xenografted with human LNCaP cells at 12.5 mg/kg administered once daily for 18 to 21 days and measured upto 10 hrs post last dose by LC-MS/MS analysis; type: ADME, organism-based; conditions: in vivo
[4] = Half life in Sprague-Dawley rat at 5 mg/kg, iv measured upto 24 hrs by UPLC-MS/MS analysis; type: ADME, organism-based; conditions: in vivo
LNCaP [5] = test: Induction of apoptosis in human LNCap cells assessed as necrotic cells incubated for 72 hrs by annexin V/PI double staining based flow cytometry method; type: functional, cell-based; conditions: dose 0.62-2.5 µM, DDE = dose-dependent effect
[6] = Metabolic stability in Beagle dog liver microsomes assessed as parent compound remaining at 1 uM measured after 60 mins by UPLC-MS/MS analysis; type: ADME, Canis lupus familiaris, Microsome; conditions: read-out: Stability
[7] = Metabolic stability in human […] liver microsomes assessed as half life at 1 uM measured after 60 mins by LC-MS/MS analysis; type: ADME, Microsome
[8] = Cmax in Sprague-Dawley rat at 10 mg/kg, ig by UPLC-MS/MS analysis; type: ADME, organism-based; set-up: dose 10 mg/kg, route ig; conditions: in vivo, po
[9] = Bioavailability in Sprague-Dawley rat at 10 mg/kg, ig by UPLC-MS/MS analysis; type: ADME, organism-based; conditions: in vivo, po
LNCaP [10] = test: In vivo inhibition of AKT in human LNCaP cells xenografted in NCG mouse assessed as reduction in PRAS40 phosphorylation at 50 mg/kg administered for 21 days and measured after 4 hrs post last dose by Western blot analysis; type: functional, organism-based; conditions: time 21.0 day
[11] = biological target: Protein kinase C eta type (Homo sapiens) (UniProt P24723); test: Inhibition of PKCeta (unknown origin) at 1 uM in presence of ATP at Km concentration by mobility shift assay relative to control
Chain of Protein kinase C eta type (Homo sapiens) (P24723 whole entry): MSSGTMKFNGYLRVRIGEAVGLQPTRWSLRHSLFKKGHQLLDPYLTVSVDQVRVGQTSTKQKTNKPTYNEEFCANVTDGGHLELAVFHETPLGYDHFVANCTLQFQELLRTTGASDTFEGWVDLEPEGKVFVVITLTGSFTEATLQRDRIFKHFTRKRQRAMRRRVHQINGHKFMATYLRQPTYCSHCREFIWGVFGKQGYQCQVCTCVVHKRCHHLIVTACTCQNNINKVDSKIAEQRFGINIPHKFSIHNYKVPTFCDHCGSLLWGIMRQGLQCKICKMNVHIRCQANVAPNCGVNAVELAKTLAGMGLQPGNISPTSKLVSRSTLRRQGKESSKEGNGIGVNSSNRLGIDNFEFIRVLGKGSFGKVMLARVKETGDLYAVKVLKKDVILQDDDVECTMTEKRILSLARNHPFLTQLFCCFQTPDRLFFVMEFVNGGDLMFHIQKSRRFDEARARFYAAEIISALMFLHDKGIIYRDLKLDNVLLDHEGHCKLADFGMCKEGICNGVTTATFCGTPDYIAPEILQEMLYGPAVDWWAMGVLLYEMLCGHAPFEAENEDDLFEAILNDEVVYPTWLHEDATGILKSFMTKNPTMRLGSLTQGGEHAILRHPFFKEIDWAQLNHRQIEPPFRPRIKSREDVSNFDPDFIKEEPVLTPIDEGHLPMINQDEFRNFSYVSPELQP

Chain of Cytochrome P450 2C9 (P11712 whole entry): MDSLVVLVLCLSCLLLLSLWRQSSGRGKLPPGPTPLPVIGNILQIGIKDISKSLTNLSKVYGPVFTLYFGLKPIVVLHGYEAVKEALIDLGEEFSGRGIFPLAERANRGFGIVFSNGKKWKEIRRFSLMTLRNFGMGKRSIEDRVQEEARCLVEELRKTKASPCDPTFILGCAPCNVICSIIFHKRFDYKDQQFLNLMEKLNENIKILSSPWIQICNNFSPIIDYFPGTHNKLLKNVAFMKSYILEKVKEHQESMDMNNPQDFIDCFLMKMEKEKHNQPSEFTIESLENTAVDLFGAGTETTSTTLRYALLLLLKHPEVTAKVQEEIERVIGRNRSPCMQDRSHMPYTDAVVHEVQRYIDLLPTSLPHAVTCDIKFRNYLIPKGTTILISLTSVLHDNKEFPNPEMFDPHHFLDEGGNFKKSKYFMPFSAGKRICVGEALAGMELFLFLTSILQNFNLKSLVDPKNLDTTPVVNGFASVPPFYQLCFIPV

half-life [2]: 6.16 h
pIC50 (Cytochrome P450 2C9): < 4.30
Cmax [3]: 963 ng/mL
half-life [4]: 2.97 h
remaining at 1 h, 1 µM [6]: 53.6%
half-life at 1 µM [7]: 1.52 h
Cmax [8]: 705 ng/mL
bioavailability [9]: 110%
inhibition [11]: 90%
Structure (SMILES): CC(C)NC[C@@H](C(=O)N1CCN(c2ncnc3c2[C@H](C)CC(=O)N3)[C@H]2C[C@H]21)c1ccc(Cl)cc1
inhibition in vivo at 50 mg/kg (LNCaP [1]): 95.5%
Activity (LNCaP [5]): Dde
Activity (LNCaP [10]): Active

— ChEMBL document CHEMBL5154942, “Discovery of Clinical Candidate NTQ1062 as a Potent and Bioavailable Akt Inhibitor for the Treatment of Human Tumors” (J Med Chem, 2022)
